# Laboratory results as given in patent US8138196B2, “Antifungal wallboards and building materials and methods for the production thereof” (Syngenta Crop Protection, Inc., priority 2005, dated 2012).
# Key:
# Format in all cases: cell-based
# [1] = tested on: Alternaria tenuissima (DSM 63360); assay: Example 4 liquid culture assay on 24 and 48 well plates, 3 way mixtures; conditions: A. tenuissima
# Text: (§1) For test 006-2005: Alternaria tenuissima (DSM 63360), Penicillium chrysogenum (DSM 895), Cladosporium cladosporoides (DSM62121), Aspergillus niger (DSM 63263), Aspergillus versicolor (DSM 1943) and Aureobasidium pullulans (ATCC 15233) were separately cultivated on PDA media to […] sporulation. Spore suspensions were produced for each fungus. Spore concentrations of approx. 100,000 spores/ml were used.
# […] Spore suspensions were produced for each fungus. Spore concentrations of approx. 100,000 spores/ml were used.
# (§2) Test method used: liquid culture assay on 24 and 48 well plates respectively.
# (§3) For testing of the 3 way mixtures each of the formulated fungicide (100 ul) was filled into the 24 and 48 well plates respectively. Afterwards 700 ul of 0.3% AE media was added to the plate. The spore suspension of the specific fungi was added to this media in advance containing approx. 100,000 spores/ml. For testing the solo compounds the equivalent of distilled water was added instead of the formulated fungicide volume of the mixing partners. The plates were then sealed and incubated at 24° C.
# (§4) Dependent on the growth properties of each organisms, the evaluation was done after 3 to 6 days, when the surface of the check well was covered with mycelium. The evaluation was performed by assessing the growth of the fungi related to the check growth. The results are expressed as % activity relative to the check (values of 0-100% growth). Afterwards the results were converted in % growth inhibition.
# (§5) For the mixtures of different fungicides the synergism was calculated based on the Colby equation, which is described above.
# [2] = tested on: Aspergillus niger (DSM 63263); assay: Example 3 liquid culture assay on 24 well plates, solo and 2-way mixtures; conditions: test 006-2005; rate (AZO) 0.05 mg ai/l
# Text: as §1, with “Alternaria” for “For test 006-2005: Alternaria”, “Stachybotrys chartarum (DSM2144),” for “Cladosporium cladosporoides (DSM62121),”, “fungi.” for “fungus.”, “100.000” for “100,000”
# (§6) Test method used: liquid culture assay on 24 well plates.
# (§7) For solo (i.e. single) ai testing the formulated fungicide (100 ul) was filled into the 24 well plates and 100 ul distilled water was added. Afterwards 800 ul of 0.3% AE media was added to the plate. The spore suspension of the specific fungi was added to this media in advance containing approx. 100,000 spores/ml. The 24 well plates were sealed and incubated at 24° C.
# as §4, with “in % O growth inhibition.” for “in % growth inhibition.”
# (§8) For synergism testing of the 2-way mixtures 100 ul of each fungicide were filled into 24 well plates and 800 ul of 0.3% AE media containing the spore suspension was added. Different ratios of the 2 fungicide rates were tested at the same time.
# (§9) For the mixtures of different fungicides the synergism was calculated based on the Colby equation, which is described below: […]
# (§10) The fungicidal action to be expected, We, for a given combination of two fungicides can be calculated as follows (see COLBY, S. R. “Calculating synergistic and antagonistic response of herbicide combinations”. Weeds 15, pages 20-22; 1967): We=X+[Y×(100−X)/100] wherein: • X=% activity in the case of treatment with the compound of formula I at rate x, in comparison with untreated control (=0%). • Y=% activity in the case of treatment with a compound of formula II at rate y, in comparison with untreated control. • We=expected activity (% activity in comparison with untreated control) after treatment with the compound of formula I and a compound of formula II at a rate of x+y kg of active ingredient.
# (§11) If the activity actually observed is greater than the expected value We (factor observed activity/expected activity >1.2), there is a synergistic effect.
# [3] = tested on: Aspergillus versicolor (DSM 1943); assay: as above; conditions: test 006-2005
# Text: as §1, with “Alternaria” for “For test 006-2005: Alternaria”, “Stachybotrys chartarum (DSM2144),” for “Cladosporium cladosporoides (DSM62121),”, “fungi.” for “fungus.”, “100.000” for “100,000”
# as §6, §7
# as §4, with “in % O growth inhibition.” for “in % growth inhibition.”
# as §8, §9, §10, §11
# [4] = tested on: Stachybotrys chartarum (DSM2144); assay: as above; conditions: test 006-2005; rate (AZO) 0.8 mg ai/l
# Text: as §1, with “Alternaria” for “For test 006-2005: Alternaria”, “Stachybotrys chartarum (DSM2144),” for “Cladosporium cladosporoides (DSM62121),”, “fungi.” for “fungus.”, “100.000” for “100,000”
# as §6, §7
# as §4, with “in % O growth inhibition.” for “in % growth inhibition.”
# as §8, §9, §10, §11
# [5] = tested on: Aspergillus versicolor (DSM 1943); assay: Example 4 liquid culture assay on 24 and 48 well plates, 3 way mixtures; conditions: test 006-2005, A. versicolor
# Text: as §1, §2, §3, §4, §5
# [6] = tested on: Aspergillus niger (DSM 63263); assay: as above; conditions: A. niger, AZO 0.05 mg ai/l
# Text: as §1
# For test 015-2006: Alternaria tenuissima (DSM 63360), Penicillium pinophilum (CBS342.61), Gliocladium virens (DSM1963), Aspergillus niger (DSM 63263), Stachybotrys chartarum (DSM 2144) and Aureobasidium pullulans (ATCC 15233) were separately cultivated on PDA media to […] sporulation. Spore suspensions were produced for each fungus. Spore concentrations of approx. 100,000 spores/ml were used.
# as §2, §3, §4, §5
# Coniophora puteana = assay: radial mycelial growth on fungicide amended agar; conditions: estimated from graph of % activity (radial mycelial growth relative to agar without fungicide) against concentration
# Experimental: Stem cultures of Coniophora puteana were produced by propagating the fungus on a growth medium comprising yeast extract (10 g), glycerol (20 ml), magnesium sulphate (0.5 g), sodium nitrate (6.0 g), potassium chloride (0.5 g), potassium dihydrogen orthophosphate (1.5 g), agar (20 g) in distilled water (980 ml).
# Fungicides were added at levels of 5000, 100, 10, 1, 0.1 and 0.01 mg fungicide/litre of growth medium (described above) to give […] different growth medium compositions for each fungicide. Mycelial plugs were taken from the stem cultures and transferred upside down onto petri dishes containing the fungicide amended agar.
# The radial mycelial growth of the fungus was measured individually on all test petri dishes. The results are expressed as % activity relative to the radial growth on agar without fungicide.
# For each fungicide, a graph was drawn of percentage activity against concentration of fungicide in the growth medium. From this graph, the concentrations of fungicide required to achieve 80% activity was estimated. These figures are given in the results table.
smiles,measurement,setting,value
CO/C=C(/C(=O)OC)c1ccccc1Oc1cc(Oc2ccccc2C#N)ncn1 [Azoxystrobin],inh % (AZO alone),"[1]; test 006-2005, AZO 0.05 mg ai/l",10%
same,inh % (AZO alone),"[1]; test 006-2005, AZO 0.2 mg ai/l",10%
same,inh % (AZO alone),"[1]; test 006-2005, AZO 0.8 mg ai/l",10%
same,inh % (AZO alone),"[1]; test 006-2005, AZO 1.6 mg ai/l",10%
same,inh % (AZO alone),"[1]; test 006-2005, AZO 3.12 mg ai/l",10%
same,inh % (AZO alone),"[1]; test 006-2005, AZO 12.5 mg ai/l",10%
same,inh % (AZO alone),"[1]; test 006-2005, AZO 50 mg ai/l",10%
same,inh % (AZO alone),"[1]; test 006-2005, AZO 100 mg ai/l",10%
same,inh % (AZO alone),"[1]; test 015-2005, AZO 0.05 mg ai/l",10%
same,inh % (AZO alone),"[1]; test 015-2005, AZO 0.2 mg ai/l",10%
same,inh % (AZO alone),[2],10%
same,inh % (AZO alone),[3]; rate (AZO) 0.8 mg ai/l,30%
same,inh % (AZO alone),[3]; rate (AZO) 1.6 mg ai/l,30%
same,inh % (AZO alone),[4],10%
same,inh % (AZO alone),[5]; AZO 0.05 mg ai/l,10%
same,inh % (AZO alone),[5]; AZO 0.2 mg ai/l,30%
same,inh % (AZO alone),[5]; AZO 0.8 mg ai/l,30%
same,inh % (AZO alone),[5]; AZO 1.6 mg ai/l,30%
same,inh % (AZO alone),[5]; AZO 3.12 mg ai/l,30%
same,inh % (AZO alone),[5]; AZO 12.5 mg ai/l,30%
same,inh % (AZO alone),[5]; AZO 50 mg ai/l,30%
same,inh % (AZO alone),[5]; AZO 100 mg ai/l,30%
same,inh % (AZO alone),[6]; test 006-2005,10%
same,inh % (AZO alone),[6]; test 015-2005,0%
same,Concentration required for 80% Activity,Coniophora puteana,0.38 mg/L
